In brackets after ≈: the same amount, converted by molar mass.
Assays:
Type in all cases: cell-based
C. albicans ATCC 90028 = experiment: microbe, parasite or virus in culture
Method in brief: (§1)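 Yeast colonies were suspended to a 0.5 McFarland standard and diluted 1:100, while Aspergillus suspensions were diluted to ~0.2-2.5×10^4 CFU/mL final. Organisms were then exposed to 2-fold compound series in RPMI, pH 7.0, at 35° C. for approximately 24-48 hr before visual MIC/MEC reading.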

C. glabrata ATCC 90030 = experiment: microbe, parasite or virus in culture
Method in brief: as §1

C. krusei ATCC 14243 = experiment: microbe, parasite or virus in culture
Method in brief: as §1

[1] = test system: C. parapsilosis ATCC 22019; experiment: microbe, parasite or virus in culture
Method in brief: as §1

A. flavus MX 5948 = experiment: MEC assay (Example 31); conditions: RPMI pH 7.0, 35° C., 24-48 hr
Method in brief: as §1

A. fumigatus ATCC 13073 = experiment: MEC assay (Example 31); conditions: RPMI pH 7.0, 35° C., 24-48 hr
Method in brief: as §1

A. fumigatus MX 5944 = experiment: MEC assay (Example 31); conditions: RPMI pH 7.0, 35° C., 24-48 hr
Method in brief: as §1

A. fumigatus MYA-3626 = experiment: MEC assay (Example 31); conditions: RPMI pH 7.0, 35° C., 24-48 hr
Method in brief: as §1

A. fumigatus MYA-4609 = experiment: MEC assay (Example 31); conditions: RPMI pH 7.0, 35° C., 24-48 hr
Method in brief: as §1

[2] = test system: Neutrophils purified from human peripheral blood; experiment: Human Neutrophil Transwell Migration Assay; conditions: 37° C., 45 minutes, % of the maximum migration possible
Method in brief: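 Neutrophils (~50,000–100,000) were placed above 5-micron transwell inserts with test compound in the lower chamber and allowed to migrate 45 min at 37° C. Migrated cells were quantified by ATP luminescence; medium-only background was subtracted and values expressed as % of cells added directly to the bottom well.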

Row | Molecule | MIC (C. albicans ATCC 90028; ATCC 90028, pH 7) | MIC (C. glabrata ATCC 90030; ATCC 90030, pH 7) | MIC (C. krusei ATCC 14243; ATCC 14243, pH 7) | MIC ([1]; ATCC 22019, pH 7) | MEC (A. flavus MX 5948) | MEC (A. fumigatus ATCC 13073) | MEC (A. fumigatus MX 5944) | MEC (A. fumigatus MYA-3626) | MEC (A. fumigatus MYA-4609) | % Neutrophil Migration ([2]; conc 0.001 μg/mL) | % Neutrophil Migration ([2]; conc 0.01 μg/mL) | % Neutrophil Migration ([2]; conc 0.1 μg/mL) | % Neutrophil Migration ([2]; conc 1 μg/mL) | % Neutrophil Migration ([2]; conc 10 μg/mL) | MIC (C. albicans ATCC 90028; C. albicans ATCC 90028, RPMI pH 7.0, 35° C., 24-48 hr) | MIC (C. glabrata ATCC 90030; C. glabrata ATCC 90030, RPMI pH 7.0, 35° C., 24-48 hr) | MIC (C. krusei ATCC 14243; C. krusei ATCC 14243, RPMI pH 7.0, 35° C., 24-48 hr) | MIC ([1]; C. parapsilosis ATCC 22019, RPMI pH 7.0, 35° C., 24-48 hr)
1 | CC[C@H](C)C[C@H](C)CCCCCCCCC(=O)N[C@H]1C[C@@H](O)[C@@H](NCCN)NC(=O)[C@@H]2[C@@H](O)CCN2C(=O)[C@H]([C@H](O)CCNC(=O)[C@H](Cc2ccccc2)NC(=O)[C@H](CC(C)C)NC(=O)[C@H](CCSC)NC=O)NC(=O)[C@H]([C@H](O)[C@@H](O)c2ccc(O)cc2)NC(=O)[C@@H]2C[C@@H](O)CN2C(=O)[C@H]([C@@H](C)O)NC1=O [Compound 1] | 2 µg/mL (≈ 1.32 µM) | 4 µg/mL (≈ 2.64 µM) | 8 µg/mL (≈ 5.29 µM) | 16 µg/mL (≈ 10.6 µM) | 0.12 to 1 µg/mL | 0.12 to 2 µg/mL | 0.12 to 0.5 µg/mL | 0.25 to 0.5 µg/mL | 0.12 to 1 µg/mL | −4.7% | 67.9% | 70.7% | −10.6% | −11.2% |  |  |  | 
2 | CC[C@H](C)C[C@H](C)CCCCCCCCC(=O)N[C@H]1C[C@@H](O)[C@@H](OCCN)NC(=O)[C@@H]2[C@@H](O)CCN2C(=O)[C@H]([C@H](O)CCNC(=O)[C@H](Cc2ccccc2)NC(=O)[C@H](CC(C)C)NC(=O)[C@H](CCSC)NC=O)NC(=O)[C@H]([C@H](O)[C@@H](O)c2ccc(O)cc2)NC(=O)[C@@H]2C[C@@H](O)CN2C(=O)[C@H]([C@@H](C)O)NC1=O [Compound 11] | 2 µg/mL (≈ 1.32 µM) | 8 µg/mL (≈ 5.28 µM) | 16 µg/mL (≈ 10.6 µM) | 32 µg/mL (≈ 21.1 µM) | 0.06 µg/mL | ≦0.06-0.06 μg/mL | 0.12 µg/mL | 0.06 to 0.12 µg/mL | 0.06 µg/mL | −4.7% | 80.3% | 28.3% | −8.0% | −10.9% |  |  |  | 
3 | caspofungin acetate [reference compound] |  |  |  |  | ≦0.015-0.06 μg/mL | ≦0.03-0.06 μg/mL | 0.03 to 0.12 µg/mL | ≦0.03-0.12 μg/mL | ≦0.03-1^ μg/mL |  |  |  |  |  | 0.03 to 0.12 µg/mL | 0.06 to 0.25 µg/mL | 0.5 to 1 µg/mL | 0.5 to 1 µg/mL

Reference: US20160213742A1, “COMPOSITIONS AND METHODS FOR THE TREATMENT OF FUNGAL INFECTIONS” (priority 2013, published 2016)
